Columns and labels:
human CARM1 (PRMT4) = human CARM1 (PRMT4) (Homo sapiens (Human), UniProt Q86X55); assay: CARM1 enzyme assay on peptide substrate (3H-SAM Flashplate); settings: Biochemical potencies, read-out: Biochem IC50
Excerpt: S-adenosylmethionine (SAM), S-adenosylhomocysteine (SAH), bicine, Tween20, dimethylsulfoxide (DMSO), bovine skin gelatin (BSG), sodium butyrate and Tris(2-carboxyethyl)phosphine hydrochloride solution (TCEP) were purchased from Sigma-Aldrich at the highest level of purity possible. ^3H-SAM was purchase from American Radiolabeled Chemicals with a specific activity of 80 Ci/mmol. 384-well streptavidin Flashplates were purchased from PerkinElmer.
Peptide representative of human histone H3 residues 16-30 was synthesized with an N-terminal linker-affinity tag motif and a C-terminal amide cap by 21st Century Biochemicals. […] The sequence was Biot-Ahx-[…]-amide and contained a monomethylated arginine at position 26 (SEQ ID NO.:1).
The gene sequence encoding isoform 1 containing a deletion of amino acids 539-561 was amplified subsequently and subcloned into pFastBacMam (Viva Biotech).
Recombinant baculovirus were generated according to Bac-to-Bac kit instructions (Life Technologies). Protein over-expression was accomplished by infecting exponentially growing HEK 293F cell culture at 1.3×10^6 cell/ml with virus (MOI=10) in the presence of 8 mM sodium butyrate. Infections were carried out at 37° C. for 48 hours, harvested by centrifugation, and stored at −80° C. for purification.
Expressed full-length human Flag- and His-tagged CARM1 protein was purified from cell paste by anti-flag M2 affinity chromatography with resin equilibrated with buffer containing 20 mM Tris, 150 mM NaC, 5% glycerol, pH 7.8. Column was washed with 500 mM NaCl in buffer A and Flag-CARM1-His was eluted with 200 ug/ml FLAG peptide in buffer A. Pooled fractions were dialyzed in 20 mM Tris, 150 mM NaCl, 5% glycerol and 1 mM DTT, pH 7.8.
The assays were all performed in a buffer consisting of 20 mM Bicine (pH=7.6), 1 mM TCEP, 0.005% BSG, and 0.002% Tween 20, prepared on the day of use. Compounds in 100% DMSO (1 ul) were spotted into a polypropylene 384-well V-bottom plates (Greiner) using a Platemate Plus outfitted with a 384-channel head (Thermo Scientific). DMSO (1 ul) was added to Columns 11, 12, 23, 24, rows A-H for the maximum signal control and 1 ul of SAH, a known product and inhibitor of CARM1, was added to columns 11, 12, 23, 24, rows I-P for the minimum signal control. A cocktail (40 ul) containing the CARM1 enzyme was added by Multidrop Combi (Thermo-Fisher). The compounds were allowed to incubate with CARM1 for 30 min at room temperature, then a cocktail (10 ul) containing ^3H-SAM and peptide was added to initiate the reaction (final volume=51 ul). The final concentrations of the components were as follows: CARM1 was 0.25 nM, ^3H-SAM was 30 nM, peptide was 250 nM, SAH in the minimum signal control wells was 1 mM, and the DMSO concentration was 2%. The assays were stopped by the addition of non-radiolabeled SAM (10 ul) to a final concentration of 300 uM, which dilutes the ^3H-SAM to a level where its incorporation into the peptide substrate is no longer detectable. 50 ul of the reaction in the 384-well polypropylene plate was then transferred to a 384-well Flashplate and the biotinylated peptides were allowed to bind to the streptavidin surface for at least 1 hour before being washed once with 0.1% Tween20 in a Biotek ELx405 plate washer. The plates were then read in a PerkinElmer TopCount plate reader to measure the quantity of ^3H-labeled peptide bound to the Flashplate surface, measured as disintegrations per minute (dpm) or alternatively, referred to as counts per minute (cpm).
The Hill Coefficient normally allowed to float but may also be fixed at 1 in a 3-parameter fit.

[1] = system: asymmetric di-methyl PABP1 in RKO cells; assay: RKO methylation assay, In Cell Western (ICW) for asymmetric di-methyl PABP1; assay type: cell-based; settings: Homo sapiens, RKO, Cellular potencies, ICW PABP1me2a
Procedure, shortened: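 RKO cells treated with compound for 48 h at 37 °C, then fixed, permeabilized and immunostained for asymmetric di-methyl PABP1, with DRAQ5 as DNA stain. Infrared 700/800 nm signal ratio normalized to DMSO and 20 μM reference-compound controls; IC50 from triplicate wells.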

Chain of human CARM1 (PRMT4) (Q86X55 other isoform, or with tags, fused parts or gaps isoform Q86X55-1): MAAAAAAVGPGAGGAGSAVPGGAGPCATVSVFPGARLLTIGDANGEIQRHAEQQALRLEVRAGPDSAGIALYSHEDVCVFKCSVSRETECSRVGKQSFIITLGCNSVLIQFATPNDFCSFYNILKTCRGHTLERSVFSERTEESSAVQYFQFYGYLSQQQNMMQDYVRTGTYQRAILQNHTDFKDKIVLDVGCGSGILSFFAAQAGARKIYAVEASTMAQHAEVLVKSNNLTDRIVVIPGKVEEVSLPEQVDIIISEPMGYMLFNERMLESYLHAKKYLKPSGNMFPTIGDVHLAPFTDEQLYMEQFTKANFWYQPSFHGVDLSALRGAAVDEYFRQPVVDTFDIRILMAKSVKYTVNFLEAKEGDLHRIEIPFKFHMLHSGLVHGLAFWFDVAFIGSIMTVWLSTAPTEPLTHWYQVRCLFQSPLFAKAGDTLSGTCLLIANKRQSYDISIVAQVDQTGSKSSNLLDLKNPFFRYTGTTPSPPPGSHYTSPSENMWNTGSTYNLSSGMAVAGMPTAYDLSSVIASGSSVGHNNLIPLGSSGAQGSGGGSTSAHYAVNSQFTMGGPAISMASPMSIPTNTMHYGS

| IC50 (human CARM1 (PRMT4)) [µM] | IC50 [1] [µM] | SMILES |
| --- | --- | --- |
| 0.1 to 1 | 10 to 20 | CNCC(O)COc1cccc(-c2nc(N[C@H]3CCOC3)c(C)c(C3CCOCC3)n2)c1 (stereo partly shown) [Example 347-1a] |
| 0.1 to 1 | 10 to 20 | CNCC(O)COc1cccc(-c2nc(N[C@@H]3CCOC3)c(C)c(-c3cc[nH]n3)n2)c1 (stereo partly shown) [Example 349-1a] |
| 0.1 to 1 | 10 to 20 | CNCC(O)COc1cccc(-c2nc(N[C@@H]3CCOC3)c(C)c(N3CCC(O)CC3)n2)c1 (stereo partly shown) [Example 361-1a] |
| 0.1 to 1 | 10 to 20 | CNCC(O)COc1cccc(-c2nc(N[C@@H]3CCOC3)c(C)c(C(=O)N(C)CC3CCOCC3)n2)c1 (stereo partly shown) [Example 364-1a] |
| 0.1 to 1 | 10 to 20 | CNCC(O)COc1cccc(-c2nc(N[C@H]3CO[C@H]4OCC[C@H]43)cc(N3CCOCC3)n2)c1 (stereo partly shown) [Example 373-1a] |
| 0.1 to 1 | 10 to 20 | CNCC(O)COc1cccc(-c2nc(N[C@@H]3CCOC3)c(C)c(N3CCNC(=O)C3)n2)c1 (stereo partly shown) [Example 380-1a] |
| 0.1 to 1 | 10 to 20 | CNCC(O)COc1cccc(-c2nc(N[C@@H]3CCOC3)c(C)c(-c3ccnc(NC)c3)n2)c1 (stereo partly shown) [Example 388-1a] |
| 0.1 to 1 | 10 to 20 | CNCC(O)COc1cccc(-c2nc(N[C@@H]3CCOC3)c(C)c(-c3ccnc(N(C)C)c3)n2)c1 (stereo partly shown) [Example 389-1a] |
| 0.1 to 1 | 10 to 20 | CNCC(O)COc1cccc(-c2nc(NC3CCOC3)c(C)c(N3CCC(O)(CCO)CC3)n2)c1 (stereo not shown) [Example 399-1a] |
| 3 to 10 | 10 to 20 | CNCC(O)COc1cccc(-c2nc(NC3CCOC3)c(C)c(C(=O)N(C)C3CCOCC3)n2)c1 (stereo not shown) [Example 402-1a] |
| 3 to 10 | 10 to 20 | CNCC(O)COc1cccc(-c2nc(N[C@@H]3CCOC3)c(C)c(C(=O)N3CCOCC3)n2)c1 (stereo partly shown) [Example 403-1a] |
| 0.1 to 1 | 10 to 20 | CNCC(O)COc1cccc(-c2nc(N[C@@H]3CCOC3)c(C)c(-c3ccnc(-n4ccnc4)c3)n2)c1 (stereo partly shown) [Example 405-1a] |
| 0.1 to 1 | 10 to 20 | CNCC(O)COc1cccc(-c2nc(N[C@@H]3CCOC3)c(C)c(N3CCn4cnnc4C3)n2)c1 (stereo partly shown) [Example 418-1a] |
| 0.1 to 1 | 10 to 20 | CNCC(O)COc1cccc(-c2nc(N[C@@H]3CCOC3)c(C)c(N3CCN(C(C)=O)C4(CC4)C3)n2)c1 (stereo partly shown) [Example 423-1a] |
| 0.1 to 1 | 10 to 20 | CNCC(O)COc1cccc(-c2nc(N[C@@H]3CCOC3)c(C)c(N(CCC#N)C3CC3)n2)c1 (stereo partly shown) [Example 426-1a] |

The remaining lines, values behind:

| SMILES | IC50 (human CARM1 (PRMT4)) [µM] | IC50 [1] [µM] |
| --- | --- | --- |
| CNCC(O)COc1cccc(-c2nc(N[C@@H]3CCOC3)c(C)c(-c3cccnc3F)n2)c1 (stereo partly shown) [Example 348-1a] | 0.1 to 1 | 10 to 20 |
| CNCC(O)COc1cc(Cl)cc(-c2nc(N[C@@H]3CCOC3)c(C)c(C(=O)N(C)CC3CCOCC3)n2)c1 (stereo partly shown) [Example 353-1a] | 0.1 to 1 | 10 to 20 |
| CNCC(O)COc1cccc(-c2nc(N[C@@H]3CCOC3)c(C)c(-c3c(C)nn(C)c3C)n2)c1 (stereo partly shown) [Example 354-1a] | 0.1 to 1 | 10 to 20 |
| CNCC(O)COc1cccc(-c2nc(N[C@@H]3CCOC3)c(C)c(-c3cnc(=O)[nH]c3)n2)c1 (stereo partly shown) [Example 357-1a] | 0.1 to 1 | 10 to 20 |
| CNCC(O)COc1cccc(-c2nc(N3CCOCC3)cc(N(C3CC3)[C@@H]3CCOC3)n2)c1 (stereo partly shown) [Example 360-1a] | 0.1 to 1 | 10 to 20 |
| CNCC(O)COc1cccc(-c2nc(N[C@@H]3CCOC3)c(C)c(N3CCn4c(nnc4C(F)(F)F)C3)n2)c1 (stereo partly shown) [Example 365-1a] | 0.1 to 1 | 10 to 20 |
| CNCC(O)COc1cccc(-c2nc(N[C@@H]3CCOC3)c(C)c(-c3ccc[nH]c3=O)n2)c1 (stereo partly shown) [Example 371-1a] | 1 to 3 | 10 to 20 |
| CNCC(O)COc1cccc(-c2nc(NC3CCOCC3)cc(N(C3CC3)[C@@H]3CCOC3)n2)c1 (stereo partly shown) [Example 372-1a] | 1 to 3 | 10 to 20 |
| CNCC(O)COc1cccc(-c2nc(N[C@H]3CO[C@H]4OCC[C@H]43)c(C)c(N3CCOCC3)n2)c1 (stereo partly shown) [Example 374-1a] | 0.1 to 1 | 10 to 20 |
| CCN(c1nc(-c2cccc(OCC(O)CNC)c2)nc(N2CCOCC2)c1C)[C@@H]1CCOC1 (stereo partly shown) [Example 375-1a] | 1 to 3 | 10 to 20 |
| CNCC(O)COc1cccc(-c2nc(NC3CCOC3)c(C)c(C(=O)NC3CCOCC3)n2)c1 (stereo not shown) [Example 383-1a] | 1 to 3 | 10 to 20 |
| CNCC(O)COc1cccc(-c2nc(NC3CCOC3)c(C)c(C(=O)NC)n2)c1 (stereo not shown) [Example 384-1a] | 0.1 to 1 | 10 to 20 |
| CNCC(O)COc1cccc(-c2nc(N[C@@H]3CCOC3)c(C)c(N3CCC(C)(O)CC3)n2)c1 (stereo partly shown) [Example 385-1a] | 0.1 to 1 | 10 to 20 |
| CNCC(O)COc1cccc(-c2nc(N[C@@H]3CCOC3)c(C)c(N3CCC(OCCOC)CC3)n2)c1 (stereo partly shown) [Example 386-1a] | 3 to 10 | 10 to 20 |
| CNCC(O)COc1cccc(-c2nc(N[C@@H]3CCOC3)cc(N3CCOCC3)n2)c1 (stereo partly shown) [Example 387-1a] | 0.1 to 1 | 10 to 20 |
| CNCC(O)COc1cccc(-c2nc(N[C@@H]3CCOC3)c(C)c(N(C)Cc3ccccn3)n2)c1 (stereo partly shown) [Example 393-1a] | 0.1 to 1 | 10 to 20 |
| CNCC(O)COc1cccc(-c2nc(N[C@@H]3CCOC3)c(C)c(N3CCC[C@H]3COC)n2)c1 (stereo partly shown) [Example 395-1a] | 0.1 to 1 | 10 to 20 |
| CNCC(O)COc1cccc(-c2nc(NC3CCOC3)c(C)c(N3CCC4(CCO4)CC3)n2)c1 (stereo not shown) [Example 400-1a] | 0.1 to 1 | 5 to 10 |
| CNCC(O)COc1cccc(-c2nc(NC3CCOC3)c(C)c(N3CCCC4(CCOCC4)C3)n2)c1 (stereo not shown) [Example 401-1a] | 0.1 to 1 | 10 to 20 |
| CCc1c(N[C@@H]2CCOC2)nc(-c2cccc(OCC(O)CNC)c2)nc1N1CCOCC1 (stereo partly shown) [Example 404-1a] | 0.1 to 1 | 10 to 20 |
| CNCC(O)COc1cccc(-c2nc(N[C@@H]3CCOC3)c(C)c(-c3ccnc(OCCOC)c3)n2)c1 (stereo partly shown) [Example 406-1a] | 0.1 to 1 | 5 to 10 |
| CNCC(O)COc1cccc(-c2nc(N[C@@H]3CCOC3)c(C)c(-c3ccnc(N4CCC4)c3)n2)c1 (stereo partly shown) [Example 407-1a] | 0.1 to 1 | 10 to 20 |
| CNCC(O)COc1cccc(-c2nc(N[C@@H]3CCOC3)c(C)c(-c3ccc(=O)[nH]c3)n2)c1 (stereo partly shown) [Example 409-1a] | 0.1 to 1 | 10 to 20 |
| CNCC(O)COc1cccc(-c2nc(N3CCN(C(C)=O)[C@@H](C)C3)c(C)c(N(C)[C@@H]3CCOC3)n2)c1 (stereo partly shown) [Example 410-1a] | 0.1 to 1 | 5 to 10 |
| CNCC(O)COc1cccc(-c2nc(N[C@@H]3CCOC3)c(C3CC3)c(N3CCOCC3)n2)c1 (stereo partly shown) [Example 413-1a] | 0.1 to 1 | 10 to 20 |
| CNCC(O)COc1cccc(-c2nc(N[C@@H]3CCOC3)c(C)c(-c3cnn(CC(F)(F)F)c3)n2)c1 (stereo partly shown) [Example 414-1a] | 0.1 to 1 | 10 to 20 |
| CNCC(O)COc1cccc(-c2nc(N[C@@H]3CCOC3)c(C)c(-c3cccnc3N)n2)c1 (stereo partly shown) [Example 416-1a] | 3 to 10 | 10 to 20 |
| CNCC(O)COc1cccc(-c2nc(NC3CCOC3)c(C)c(N3CCNC(C(F)(F)F)C3)n2)c1 (stereo not shown) [Example 419-1a] | 0.1 to 1 | 10 to 20 |
| CNCC(O)COc1cccc(-c2nc(NC3CCOC3)c(C)c(N3CCC4(CCCO4)CC3)n2)c1 (stereo not shown) [Example 420-1a] | 0.1 to 1 | 5 to 10 |
